Results taken from patent US20100204150A1, “USE OF A PEPTIDE AS A THERAPEUTIC AGENT” (priority 2007, published 2010).
Where no end group is shown, it is not given here. [ ]: non-standard residue; d: D form.

System: drug-resistant Mycobacterium tuberculosis
Test: Mycobacterium tuberculosis assay
Format: cell-based
Conditions: 10 micrograms per ml; seven days; strain resistant to PAS, streptomycin and INH; combination 0.95:1.05 mole and all ratios 1:100 to 100:1

| Substance | inhibition of the growth of Mycobacterium tuberculosis [%] |
| --- | --- |
| Ac-Arg-Phe-Met-Trp-Met-Arg-NH2 (Ac-RFMWMR-NH2) [Peptide 2] | 100 |
| HPFHL[dL]VY-OH [Peptide 1] | 100 |
